From patent publication US4628064A, “Epinine and the therapeutic use thereof” (SIMES, Societa Italiana Medicinali e Sintetici S.p.A., priority 1983, dated 1986)

Columns and labels:
anesthetized dog = test: Hemodynamic parameters in the anesthetized dog after intravenous infusion; type: in vivo; conditions: for effect on the heart rate: doses of 1, 2.5 and 5 μg/kg/min, in words; for Average arterial pressure / Heart rate / Renal art. flow / Renal resistances: measured 5 minutes after infusion, average ± SE
Source text: Dopamine and epinine have been compared after intravenous infusion at different doses in the anesthetized dog.

[1] = system: electrically stimulated median arteria of rabbit ear; test: Inhibition of contraction induced by electrical stimulation, median arteria of rabbit ear; conditions: for IC50: Oryctolagus cuniculus, concentrations between 0.01 and 10 μM, read-out: ED50 in inhibiting the contraction induced by electrical stimulation
[2] = less potent than adrenaline; cited from earlier work

| Compound | effect on the heart rate (anesthetized dog) | Average arterial pressure (anesthetized dog; infusion 0.50 μg/kg/min) [mmHg] | Heart rate (anesthetized dog; infusion 0.50 μg/kg/min) | Renal art. flow (anesthetized dog; infusion 0.50 μg/kg/min) [mL/min] | Renal resistances (anesthetized dog; infusion 0.50 μg/kg/min) [mmHg/ml/min] | Average arterial pressure (anesthetized dog; infusion 1.00 μg/kg/min) [mmHg] | Heart rate (anesthetized dog; infusion 1.00 μg/kg/min) | Renal art. flow (anesthetized dog; infusion 1.00 μg/kg/min) [mL/min] | Renal resistances (anesthetized dog; infusion 1.00 μg/kg/min) [mmHg/ml/min] | Average arterial pressure (anesthetized dog; infusion 2.50 μg/kg/min) [mmHg] | Heart rate (anesthetized dog; infusion 2.50 μg/kg/min) | Renal art. flow (anesthetized dog; infusion 2.50 μg/kg/min) [mL/min] | Renal resistances (anesthetized dog; infusion 2.50 μg/kg/min) [mmHg/ml/min] | Average arterial pressure (anesthetized dog; infusion 5.00 μg/kg/min) [mmHg] | Heart rate (anesthetized dog; infusion 5.00 μg/kg/min) | Renal art. flow (anesthetized dog; infusion 5.00 μg/kg/min) [mL/min] | Renal resistances (anesthetized dog; infusion 5.00 μg/kg/min) [mmHg/ml/min] | IC50 [1] [nM] | activity relative to dopamine (presynaptic DA2 receptors) ([1]; higher than that of dopamine) [times] | pressor potency relative to adrenaline [2] |
| --- | --- | --- | --- | --- | --- | --- | --- | --- | --- | --- | --- | --- | --- | --- | --- | --- | --- | --- | --- | --- |
| CNCCc1ccc(O)c(O)c1 [epinine, N-methyl-3,4-dihydroxyphenethylamine] | moderate but significant reduction | 136 ± 9 | 164 ± 10 | 153.5 ± 18.5 | 0.990 ± 0.145 | 136 ± 8 | 161 ± 11 | 157.5 ± 28.1 | 0.971 ± 0.185 | 135 ± 7 | 156 ± 12 | 159.8 ± 29.3 | 0.954 ± 0.183 | 139 ± 6 | 149 ± 11 | 164.3 ± 29.7 | 0.965 ± 0.181 | 77 | 30 | about ten |
| NCCc1ccc(O)c(O)c1 [dopamine, reference compound] | slightly increased |  |  |  |  | 106 ± 7 | 144 ± 10 | 127 ± 20.8 | 1.120 ± 0.149 | 105 ± 6 | 146 ± 8 | 132 ± 21.0 | 1.053 ± 0.146 | 109 ± 6 | 151 ± 8 | 122.9 ± 19.8 | 1.136 ± 0.261 | 2390 |  |  |
